Assay results published in ChEMBL document CHEMBL6120978, “Anticancer activity of salinomycin quaternary phosphonium salts” (Eur J Med Chem, 2025).
The source made the active and inactive calls. No cut-off for these calls is given here.

Assays:
[1] = Selectivity index, ratio of IC50 for cytotoxicity against human HaCaT cells to IC50 for cytotoxicity against human MDA-MB-231 cells; format: toxicity, cell-based; conditions: HaCaT cells versus MDA-MB-231 cells, read-out: Ratio IC50
[2] = Selectivity index, ratio of IC50 for cytotoxicity against chinese hamster V79 cells to IC50 for cytotoxicity against human A549 cells; format: toxicity, cell-based; conditions: V79 cells versus A549 cells, read-out: Ratio IC50
[3] = tested on: Lipid bilayer; assay: Induction of ionic transport in azolectin bilayer membrane assessed as specific channel-like structure formation in presence of HEPES buffer by electrophysiology technique
[4] = tested on: Staphylococcus aureus; assay: Antimicrobial activity against Staphylococcus aureus ATCC 25923 incubated for 18 hrs by twofold microdilution method; format: functional
[5] = tested on: Escherichia coli; assay: Antimicrobial activity against Escherichia coli ATCC 25922 incubated for 18 hrs by twofold microdilution method; format: functional
[6] = Cytotoxicity against human HaCaT cells incubated for 72 hrs by MTT assay; format: toxicity, cell-based
[7] = tested on: Lipid bilayer; assay: Induction of ionic transport in azolectin bilayer membrane assessed as irregular disturbance in membrane permeability in presence of HEPES buffer by electrophysiology technique
[8] = tested on: MDA-MB-231; assay: Cytotoxicity against human MDA-MB-231 cells incubated for 72 hrs by MTT assay; format: functional, cell-based; conditions: MDA-MB-231, 72 h
[9] = tested on: SW480; assay: Cytotoxicity against human SW480 cells incubated for 72 hrs by MTT assay; format: functional, cell-based; conditions: SW480, 72 h
[10] = Selectivity index, ratio of IC50 for cytotoxicity against chinese hamster V79 cells to IC50 for cytotoxicity against human PC-3 cells; format: toxicity, cell-based; conditions: V79 cells versus PC-3 cells, read-out: Ratio IC50
[11] = tested on: A549; assay: Cytotoxicity against human A549 cells incubated for 72 hrs by MTT assay; format: functional, cell-based; conditions: A549, 72 h
[12] = tested on: A549; assay: Induction of mitochondrial respiration in human A549 cells assessed as fold increase in oxygen consumption rate at 1 uM by Oxygraph-2K system; format: functional
[13] = Selectivity index, ratio of IC50 for cytotoxicity against chinese hamster V79 cells to IC50 for cytotoxicity against human SW480 cells; format: toxicity, cell-based; conditions: V79 cells versus SW480 cells, read-out: Ratio IC50
[14] = tested on: Staphylococcus aureus; assay: Antimicrobial activity against Staphylococcus aureus ATCC 29213 incubated for 18 hrs by twofold microdilution method; format: functional
[15] = Selectivity index, ratio of IC50 for cytotoxicity against chinese hamster V79 cells to IC50 for cytotoxicity against human MDA-MB-231 cells; format: toxicity, cell-based; conditions: V79 cells versus MDA-MB-231 cells, read-out: Ratio IC50
[16] = Selectivity index, ratio of IC50 for cytotoxicity against chinese hamster V79 cells to IC50 for cytotoxicity against human SW620 cells; format: toxicity, cell-based; conditions: V79 cells versus SW620 cells, read-out: Ratio IC50
[17] = Cytotoxicity against chinese hamster V79 cells incubated for 72 hrs by MTT assay; format: toxicity, cell-based, Cricetulus griseus
[18] = tested on: Staphylococcus epidermidis; assay: Antimicrobial activity against Staphylococcus epidermidis ATCC 35984 incubated for 18 hrs by twofold microdilution method; format: functional
[19] = Selectivity index, ratio of IC50 for cytotoxicity against human HaCaT cells to IC50 for cytotoxicity against human PC-3 cells; format: toxicity, cell-based; conditions: HaCaT cells versus PC-3 cells, read-out: Ratio IC50
[20] = Selectivity index, ratio of IC50 for cytotoxicity against human HaCaT cells to IC50 for cytotoxicity against human SW480 cells; format: toxicity, cell-based; conditions: HaCaT cells versus SW480 cells, read-out: Ratio IC50
[21] = tested on: Lipid bilayer; assay: Induction of current generation in azolectin bilayer membrane in presence of HEPES buffer by electrophysiology technique
[22] = Selectivity index, ratio of IC50 for cytotoxicity against human HaCaT cells to IC50 for cytotoxicity against human SW620 cells; format: toxicity, cell-based; conditions: HaCaT cells versus SW620 cells, read-out: Ratio IC50
[23] = tested on: PC-3; assay: Cytotoxicity against human PC-3 cells incubated for 72 hrs by MTT assay; format: functional, cell-based; conditions: PC-3, 72 h
[24] = tested on: A549; assay: Induction of mitochondrial respiration in human A549 cells assessed as decrease in oxygen consumption rate at 3 uM by Oxygraph-2K system; format: functional, cell-based
[25] = tested on: Lipid bilayer; assay: Induction of ionic transport in azolectin bilayer membrane assessed as membrane rupture in presence of HEPES buffer by electrophysiology technique
[26] = tested on: Pseudomonas aeruginosa; assay: Antimicrobial activity against Pseudomonas aeruginosa ATCC 15442 incubated for 18 hrs by twofold microdilution method; format: functional
[27] = tested on: SW-620; assay: Cytotoxicity against human SW620 cells incubated for 72 hrs by MTT assay; format: functional, cell-based; conditions: SW-620, 72 h
[28] = tested on: Staphylococcus aureus; assay: Antimicrobial activity against Staphylococcus aureus ATCC 6538 incubated for 18 hrs by twofold microdilution method; format: functional
[29] = tested on: Staphylococcus epidermidis; assay: Antimicrobial activity against Staphylococcus epidermidis ATCC 12228 incubated for 18 hrs by twofold microdilution method; format: functional
[30] = tested on: Staphylococcus aureus; assay: Antimicrobial activity against Staphylococcus aureus NCTC 4163 incubated for 18 hrs by twofold microdilution method; format: functional
[31] = Selectivity index, ratio of IC50 for cytotoxicity against human HaCaT cells to IC50 for cytotoxicity against human A549 cells; format: toxicity, cell-based; conditions: HaCaT cells versus A549 cells, read-out: Ratio IC50
[32] = tested on: Mitochondrial membrane; assay: Induction of mitochondrial membrane potential loss in human A549 cells assessed as green fluorescence at IC50 incubated for 48 hrs MitoTracker Green FM staining based flow cytometry analysis (reference value: 8.93 %); format: cell membranes
[33] = tested on: Mitochondrial membrane; assay: Induction of mitochondrial membrane potential loss in human MDA-MB-231 cells assessed as red fluorescence at IC50 incubated for 48 hrs MitoTrackerRed CMXRos staining based flow cytometry analysis (reference value: 91.1 %); format: cell membranes
[34] = tested on: Mitochondrial membrane; assay: Induction of mitochondrial membrane potential loss in human A549 cells assessed as red fluorescence at IC50 incubated for 48 hrs MitoTrackerRed CMXRos staining based flow cytometry analysis (reference value: 91.1 %); format: cell membranes
[35] = tested on: Mitochondrial membrane; assay: Induction of mitochondrial membrane potential loss in human MDA-MB-231 cells assessed as green fluorescence at IC50 incubated for 48 hrs MitoTracker Green FM staining based flow cytometry analysis (reference value: 8.86 %); format: cell membranes

Compound	selectivity ratio [1]	selectivity ratio [2]	MIC [4] [µg/mL]	MIC [5] [µg/mL]	IC50 at 72 h [6] [µM]	IC50 [8] [µM]	IC50 [9] [µM]	selectivity ratio [10]	IC50 [11] [µM]	selectivity ratio [13]	MIC [14] [µg/mL]	selectivity ratio [15]	selectivity ratio [16]	IC50 at 72 h [17] [µM]	MIC [18] [µg/mL]	selectivity ratio [19]	selectivity ratio [20]	selectivity ratio [22]	IC50 [23] [µM]	MIC [26] [µg/mL]	also measured
CC[C@@H](C(=O)[C@@H](C)[C@@H](O)[C@H](C)[C@@H]1O[C@@H]([C@@H](CC)C(=O)OCCCC[P+](c2ccccc2)(c2ccccc2)c2ccc(N(C)C)cc2)CC[C@@H]1C)[C@H]1O[C@]2(C=C[C@@H](O)[C@]3(CC[C@@](C)([C@H]4CC[C@](O)(CC)[C@H](C)O4)O3)O2)[C@H](C)C[C@@H]1C.[Br-]	1.6	0.5	4	> 256	1.28	0.78	0.57	0.1	0.75	0.6	2	0.5	3.4	0.37	4	0.5	2.2	11.6	2.52	> 256	Activity [3]: inactive; Activity [7]: inactive; fold change (FC) [12]: 2.5; Activity [21]: Dose-dependent-effect; Activity [24]: inactive; Activity [25]: inactive; IC50 [27]: 0.11 µM; MIC [28]: 2 µg/mL; MIC [29]: 4 µg/mL; MIC [30]: 2 µg/mL; selectivity ratio [31]: 1.7
CC[C@@H](C(=O)[C@@H](C)[C@@H](O)[C@H](C)[C@@H]1O[C@@H]([C@@H](CC)C(=O)OCCCCCC[P+](c2ccccc2)(c2ccccc2)c2ccccc2)CC[C@@H]1C)[C@H]1O[C@]2(C=C[C@@H](O)[C@]3(CC[C@@](C)([C@H]4CC[C@](O)(CC)[C@H](C)O4)O3)O2)[C@H](C)C[C@@H]1C.[Br-]	0.3	0.9	2	256	0.78	2.65	0.71	0.3	0.72	0.9	2	0.2	0.2	0.63	2	0.4	1.1	0.3	1.85	256	IC50 [27]: 2.57 µM; MIC [28]: 2 µg/mL; MIC [29]: 2 µg/mL; MIC [30]: 2 µg/mL; selectivity ratio [31]: 1.1
CC[C@@H](C(=O)[C@@H](C)[C@@H](O)[C@H](C)[C@@H]1O[C@@H]([C@@H](CC)C(=O)OCCCC[P+](c2ccc(OC)cc2)(c2ccc(OC)cc2)c2ccc(OC)cc2)CC[C@@H]1C)[C@H]1O[C@]2(C=C[C@@H](O)[C@]3(CC[C@@](C)([C@H]4CC[C@](O)(CC)[C@H](C)O4)O3)O2)[C@H](C)C[C@@H]1C.[Br-]	0.8	1	4	> 256	1.12	1.42	0.73	0.3	0.66	0.9	64	0.5	0.5	0.67	8	0.5	1.5	0.9	2.24	> 256	IC50 [27]: 1.28 µM; MIC [28]: 4 µg/mL; MIC [29]: 16 µg/mL; MIC [30]: 4 µg/mL; selectivity ratio [31]: 1.7
CC[C@@H](C(=O)[C@@H](C)[C@@H](O)[C@H](C)[C@@H]1O[C@@H]([C@@H](CC)C(=O)OCCCC[P+](c2ccc(C)cc2)(c2ccc(C)cc2)c2ccc(C)cc2)CC[C@@H]1C)[C@H]1O[C@]2(C=C[C@@H](O)[C@]3(CC[C@@](C)([C@H]4CC[C@](O)(CC)[C@H](C)O4)O3)O2)[C@H](C)C[C@@H]1C.[Br-]	1.2	4.7	4	> 256	1.02	0.83	0.44	1.7	0.81	8.6	4	4.5	7.5	3.77	4	0.5	2.3	2	2.21	> 256	Activity [3]: inactive; Activity [7]: inactive; fold change (FC) [12]: 2.5; Activity [21]: Dose-dependent-effect; Activity [24]: inactive; Activity [25]: inactive; IC50 [27]: 0.5 µM; MIC [28]: 2 µg/mL; MIC [29]: 4 µg/mL; MIC [30]: 2 µg/mL; selectivity ratio [31]: 1.3
N#CC(C#N)=NNc1cccc(Cl)c1	–	–	–	–	–	–	–	–	–	–	–	–	–	–	–	–	–	–	–	–	Activity [32]: 79.6%; Activity [33]: 12.3%; Activity [34]: 20.2%; Activity [35]: 87.8%
